Experimental data taken from article PMC5471521, “Novel selective β1-adrenoceptor antagonists for concomitant cardiovascular and respiratory disease” (The FASEB Journal, 2017).

Columns and labels:
[1] = Metabolic stability, human hepatocytes; format: in vitro ADME; details: cryopreserved hepatocytes
Procedure: (§1) NDD-713.HCl and -825.HCl were incubated (0.02, 0.1, or 0.5 μM at 37°C, 120 min) with human (XenoTech, Kansas City, KS, USA) or rat liver microsomes (BD Biosciences, Brea, CA, USA) at 0.4 mg/ml protein concentration. Metabolic reaction was initiated by addition of NADPH-regenerating system or NADPH-regenerating system with uridine diphosphate glucuronic acid. Samples were quenched at time points by acetonitrile addition. Control samples, which contained neither NADPH, nor uridine diphosphate glucuronic acid, were monitored for degradation. Compound concentrations were determined by ultraperformance LC-MS (UPLC-MS) relative to calibration standards that were prepared in quenched liver microsomes and fitted to exponential decay functions to determine first-order rate constants (k) for substrate depletion. These were used to calculate in vitro intrinsic clearance (CLint) values: CLint = k/microsomal protein content (0.4 mg protein/ml). Metabolic stability assays that used rat liver cytosol (BD Biosciences), human cryopreserved hepatocytes, or rat hepatocytes were carried out similarly. Average viable cell concentrations were determined by Trypan Blue exclusion methods (in the absence of test compounds). Studies were carried out by CDCO.

human β1-AR [2] = biological target: T1, human β1-AR (Homo sapiens, UniProt P08588); test: 3H-CGP12177 whole-cell binding in CHO-β1 cells; details: for Kd: CHO-β1 cells, mean ± SEM, read-out: Human β1-AR Log Kd (converted); for SI1a (in vitro binding) = Kd,β2/Kd,β1: Kd values from 3H-CGP12177 whole-cell binding, Table 1
T1 construct: expressed in transfected cells
T1 sequence (P08588 whole entry): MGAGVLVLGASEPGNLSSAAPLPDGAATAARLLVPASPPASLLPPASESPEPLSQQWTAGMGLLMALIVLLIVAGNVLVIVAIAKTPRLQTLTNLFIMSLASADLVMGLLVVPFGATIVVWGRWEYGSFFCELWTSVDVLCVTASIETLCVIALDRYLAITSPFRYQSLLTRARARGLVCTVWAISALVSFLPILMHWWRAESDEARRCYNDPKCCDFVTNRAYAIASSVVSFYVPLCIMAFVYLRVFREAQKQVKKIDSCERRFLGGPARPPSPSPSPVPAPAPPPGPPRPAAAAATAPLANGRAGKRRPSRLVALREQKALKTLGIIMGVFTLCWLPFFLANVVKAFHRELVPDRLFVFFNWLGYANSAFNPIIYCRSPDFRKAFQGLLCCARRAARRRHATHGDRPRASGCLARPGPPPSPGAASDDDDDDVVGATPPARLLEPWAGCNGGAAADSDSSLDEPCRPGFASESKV

[3] = Metabolic stability, rat hepatocytes; format: in vitro ADME
Procedure: as §1

human β1-AR [4] = biological target: T1, human β1-AR; test: CRE-SPAP reporter gene assay in CHO-β1 cells; format: cell-based; details: agonist mode, n = 5
Procedure: cAMP response element (CRE)–secreted placental alkaline phosphatase (SPAP) production was measured in confluent cells (96-well plates, 5 h incubation at 37°C) as described in Baker ([46]). This assay is a sensitive measure of both cAMP and ERK1/2 MAPK pathways ([47]).

[5] = test system: HR (β1) and HQC (β2) in conscious rats; test: In vivo β1- vs. β2-selectivity, oral administration, conscious rats (isoprenaline responses); design: species or system rat; details: for Effect on basal and isoprenaline-stimulated HR after oral gavage: lightly sedated rats dosed by oral gavage, measured once fully recovered
Procedure: Adult male Sprague-Dawley rats, weighing 300−400 g, were chronically instrumented with pulsed Doppler flow probes and intravascular catheters for cardiovascular monitoring and drug administration in a 2-stage surgical protocol as described ([51]). Surgery was performed under general anesthesia (fentanyl and medetomidine, 300 μg/kg of each, i.p.), with reversal and postoperative analgesia provided by atipamezole (1 mg/kg, s.c.) and buprenorphine (0.02 mg/kg, s.c.). Experiments were performed with animals that were fully conscious and unrestrained in home cages and given free access to food and water. Cardiovascular variables were recorded by using a customized, computer-based system (Instrument Development Engineering Evaluation, Maastrich Instruments Bv, Maastrich, The Netherlands) with raw data sampled every 2 ms. Hindquarters vascular conductance (HQC) was calculated as Doppler shift (flow)/mean arterial pressure.
Experiments ran over 3 consecutive days. Lightly sedated rats (propofol at 0.1–0.2 ml of 10 mg/ml, i.v.) that were instrumented for cardiovascular monitoring were administered an oral dose of NDD-825.HCl (1 mg/kg on d 1, 3 mg/kg on d 2, 10 mg/kg on d 3; 10 ml/kg in water) by oral gavage. Each day, responses to isoprenaline infusions were monitored before and at 0.5–1.5 and 3–4 h after oral NDD-825.HCl administration.
Isoprenaline responses shown are absolute values for HR and HQC before the first dose of isoprenaline (baseline) and during the third minute of infusion of each dose. Values at baseline and during the highest isoprenaline dose were tested for statistical significance by using a nonparametric ANOVA test with correction for repeat measures [Quade test ([52])]. A value of P < 0.05 was taken as significant.

CYP3A4 = biological target: T2, CYP3A4 (Homo sapiens, UniProt P08684); test: P450 in vitro clearance, recombinant Supersomes; format: in vitro ADME; details: 2 μM, hydrochloride salts used
T2 construct: purchased BD Biosciences
T2 sequence (P08684 whole entry): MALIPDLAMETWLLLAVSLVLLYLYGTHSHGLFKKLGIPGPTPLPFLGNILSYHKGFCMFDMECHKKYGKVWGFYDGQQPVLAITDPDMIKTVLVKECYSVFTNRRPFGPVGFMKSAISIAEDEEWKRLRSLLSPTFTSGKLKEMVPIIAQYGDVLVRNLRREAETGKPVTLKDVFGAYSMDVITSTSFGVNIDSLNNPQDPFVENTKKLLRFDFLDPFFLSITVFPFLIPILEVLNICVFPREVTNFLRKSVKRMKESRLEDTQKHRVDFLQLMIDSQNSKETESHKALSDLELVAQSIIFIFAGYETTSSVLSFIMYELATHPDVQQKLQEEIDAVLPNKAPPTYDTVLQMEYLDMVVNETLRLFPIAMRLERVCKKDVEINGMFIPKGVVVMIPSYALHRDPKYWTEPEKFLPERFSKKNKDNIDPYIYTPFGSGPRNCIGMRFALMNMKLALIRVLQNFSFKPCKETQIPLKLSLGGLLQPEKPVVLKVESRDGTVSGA
Procedure: NDD-713.HCl and -825.HCl (2 μM) and cytochrome P450 (P450) reference substrates (see Supplemental Data for full details) were incubated (37°C) with selected recombinant human P450 isoforms (CYP1A2, CYP2A6, CYP2B6, CYP2C8, CYP2C9, CYP2C19, CYP2D6 CYP2E1, and CYP3A4) in heterologously expressed P450 Supersomes (BD Biosciences) that were suspended in […] Tris-HCl buffer (pH 7.4; for CYP2C9) or 100 mM phosphate buffer (pH 7.4; for the other isoforms) at final P450 concentrations of 85 pmol/ml. Reactions were initiated by additions of an NADPH-regenerating system and quenched at time points over 60 min (reference probes) or 120 min (test compounds) by acetonitrile. Quenched samples were centrifuged and supernatants were collected. NDD-713, -825, and probe metabolites were determined by UPLC-MS relative to calibration standards prepared in quenched matrix, and %substrate that remained was calculated relative to the initial sample concentration. The %substrate that remained vs. time was fitted to exponential decay functions to determine the pseudo first-order rate constant (k/min) for substrate depletion. These were normalized to P450 concentrations (pmol/ml) to obtain in vitro CLint values: CLint, in vitro (μl/min/pmol P450) = [k (min^−1)/P450 concentration […]] × 1000. Studies were carried out by CDCO.

human β3-AR = biological target: T3, human β3-AR (Homo sapiens, UniProt P13945); test: Antagonism of cimaterol-induced 3H-cAMP accumulation in CHO-β3 cells; format: cell-based; details: cimaterol agonist, mean ± SEM, read-out: Log Kd,β3 (converted)
T3 construct: expressed in transfected cells
T3 sequence (P13945 whole entry): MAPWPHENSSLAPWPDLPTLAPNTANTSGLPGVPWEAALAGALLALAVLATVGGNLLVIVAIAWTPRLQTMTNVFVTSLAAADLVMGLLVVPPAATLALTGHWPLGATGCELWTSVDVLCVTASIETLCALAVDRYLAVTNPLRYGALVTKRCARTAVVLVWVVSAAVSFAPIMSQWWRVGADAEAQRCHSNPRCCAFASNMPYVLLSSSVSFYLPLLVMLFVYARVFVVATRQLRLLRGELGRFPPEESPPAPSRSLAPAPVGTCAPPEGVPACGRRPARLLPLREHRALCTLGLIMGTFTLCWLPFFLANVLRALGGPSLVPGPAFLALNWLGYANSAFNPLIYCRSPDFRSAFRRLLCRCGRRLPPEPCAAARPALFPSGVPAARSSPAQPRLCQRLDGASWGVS
Procedure: Confluent cells were examined (24-well plates, 5 h incubation at 37°C) as described in Baker ([45]). Antagonist Kd values were calculated from a rightward shift of the agonist concentration response curve by using the Gaddum equation as previously described ([46]).

HepG2 cells = test: HepG2 cytotoxicity (CellTiter-Glo); format: cell-based, human; details: 24 h, even at the limits of aqueous solubility
Procedure: Human hepatocyte carcinoma cells (HepG2; European Collection of Cell Cultures, Salisbury, United Kingdom) were grown in accordance with their guidelines by using DMEM. Cells at a density of 30,000 cells/well in 96-well plates were incubated overnight (37°C, 5% CO2 atmosphere). Medium was then removed and replaced with DMEM that contained control or compounds (1, 10, and 100 μM; n = 2 per concentration) for 24 h before addition of 100 μl/well of CellTiter-Glo Reagent (Promega, Madison, WI, USA) for ATP measurement and shaken to induce cell lysis. Luminescence was quantified on an AnalystAD plate-reader (Molecular Devices, Sunnyvale, CA, USA). Thioridizine (known HepG2 cytotoxicity) was used as positive control. Study was carried out by BioFocus DPI (Saffron Walden, United Kingdom).

SMILES | hepatocyte CLint [1] [µL/min/1e6 cells] | Kd (human β1-AR [2]) [nM] | SI1a (in vitro binding) = Kd,β2/Kd,β1 (human β1-AR [2]) | Human β1 vs. β2 selectivity Kd,β2/Kd,β1 (human β1-AR [2]; from 3H-CGP12177 whole-cell binding) | CLint rat hepatocytes [3] | CRE-SPAP production relative to isoprenaline maximum (human β1-AR [4]) | Effect on basal and isoprenaline-stimulated HR after oral gavage [5] | P450 in vitro clearance CLint, CYP3A4 (CYP3A4) [μl/min/pmol P450] | Kd (human β3-AR) [nM] | Cytotoxic effects in HepG2 cell viability assay (HepG2 cells) | hepatocyte CLint ([3]; hepatocytes) [µL/min/1e6 cells] | Effect on basal HR ([5]; conscious rats, oral gavage 1 mg/kg (d 1), n = 3) | Lowering of basal HR and reduction in isoprenaline-stimulated HR ([5]; conscious rats, oral gavage 3 and 10 mg/kg on subsequent days, compared with 1 mg/kg) | Changes in HQC responses to isoprenaline ([5]; conscious rats, oral gavage, any dose level (1, 3, 10 mg/kg))
NC(=O)c1ccc(OCCNC[C@H](O)COc2ccc3c(c2)OC[C@@H](COCC2CC2)O3)cc1 [NDD-713] | < 6 | 15.1 | 589 | 589 | minimal | no responses were observed | caused a reduction of basal and isoprenaline-stimulated HR | 0.07 | 3390 | no cytotoxic effects | – | – | – | –
O=C1NCc2cc(OCCNC[C@H](O)COc3ccc4c(c3)OC[C@@H](COCC3CC3)O4)ccc21 [NDD-825] | 6 | 5.25 | 1023 | – | – | no responses were observed | caused a reduction of basal and isoprenaline-stimulated HR | 0.17 | 1910 | no cytotoxic effects | 5 | small but significant lowering of basal HR | more pronounced | No significant changes
